Values quoted from earlier work, collected in US20060275243A1, “Cosmetic or therapeutic combination preparation with theanine” (ROVI GmbH & Co. Kosmetische Rohstoffe KG, priority 2005, published 2006).

Settings: investigations referred to in the description

CCNC(=O)CC[C@H](N)C(=O)O [theanine]
effect on the cramp-triggering effect of caffeine: can inhibit the cramp-triggering effect of caffeine
